Laboratory results published in article PMC10065799, “High-throughput profiling of sequence recognition by tyrosine kinases and SH2 domains using bacterial peptide display” (eLife, 2023).

Tests used:
Assay in all cases: pTyr-Var library bacterial peptide display kinase screen (enrichment scores)
[1] = system: Fer kinase domain; type: biochemical, mouse; details: sheet "Fer";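 also: log2 fold change in enrichment of variant over reference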
[2] = target: c-Src kinase domain (Homo sapiens, UniProt P12931); type: biochemical; details: sheet "Src";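 also: log2 fold change in enrichment of variant over reference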
[3] = system: EPHB1 kinase domain; type: biochemical, human; details: for Screen: sheet EPHB1, effect of the variant peptide relative to its reference peptide in the pTyr-Var library screen (enrichment scores); for Screen (variant relative to reference peptide, measured in the pTyr-Var library screen): sheet "EPHB1", variant seq vs reference seq, bacterial peptide display enrichment
[4] = system: EPHB2 kinase domain; type: biochemical, human; details: sheet EPHB2;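 also: log2 fold change in enrichment of variant over reference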
[5] = target: T1, c-Abl kinase domain (Mus musculus, UniProt P00520); type: biochemical;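 also: log2 fold change in enrichment of variant over reference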
T1 sequence (P00520 242-493 limits assumed): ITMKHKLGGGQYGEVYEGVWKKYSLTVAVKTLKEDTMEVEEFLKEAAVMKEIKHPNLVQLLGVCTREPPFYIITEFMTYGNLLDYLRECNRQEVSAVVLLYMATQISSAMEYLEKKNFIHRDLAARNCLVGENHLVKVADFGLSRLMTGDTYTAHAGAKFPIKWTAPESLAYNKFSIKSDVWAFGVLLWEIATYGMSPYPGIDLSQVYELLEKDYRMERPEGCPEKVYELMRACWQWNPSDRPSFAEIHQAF

[6] = value of the variant peptide against its reference peptide in the pTyr-Var library screen with Fer
[7] = effect of the variant peptide relative to its reference peptide in the pTyr-Var library screen
[8] = effect of variant peptide relative to its reference peptide in the pTyr-Var library screen (enrichment scores)
[9] = variant peptide relative to its reference peptide, pTyr-Var library screen enrichment
[10] = variant peptide versus its reference peptide in the pTyr-Var library screen
[11] = fig5-data2, sheet "Abl", Screen for the variant/reference peptide pair, pTyr-Var library

| Sequence | Screen [1, 6] | Screen [2, 7] | Screen [3] | Screen [4, 8] | other results |
| --- | --- | --- | --- | --- | --- |
| RWQQLYDTLNA [EIF3M_Y351_Q346R] | -0.4426 | -0.1 | -0.05321 | 0.365 | – |
| ADGLEYSRTEL [MMUT_Y287_G291E] | – | – | – | -1.172 | – |
| SISFDYCRVPM [BST2_Y8_T4I_YF] | – | – | -2.179 | -2.162 | – |
| KKHIPYKEHKS [CSNK1G1_Y205_R206K] | -0.8729 | – | -0.623 | – | – |
| VFPIDYFFPPQ [AR_Y552_L548F_YF] | – | – | – | 0.813 | – |
| VFLGAYDCFLP [SLC22A5_Y486_R488C_YF] | – | – | – | 1.473 | Screen [1, 9]: 1.979; Screen [2, 10]: 0.189; Screen (variant relative to reference peptide, measured in the pTyr-Var library screen) [3]: 1.419 |
| EVEPTYVVLFD [ERCC4_Y577_R576T_YF] | – | 2.973 | 1.659 | 2.191 | – |
| FCRITYDIFPF [INTS13_Y67_M66T_YF] | – | -0.3434 | -0.0851 | 0.3565 | Screen [5, 11]: 1.32 |
| HSSPVYVGRVV [TGM2_Y219_R214H] | – | – | – | – | Screen [1, 9]: 0.4894; Screen [2, 10]: 0.1113; Screen (variant relative to reference peptide, measured in the pTyr-Var library screen) [3]: 1.553 |
| HNLNFYKKTTN [FGFR3_Y648_D646N_YF] | -1.085 | -1.956 | -1.233 | -1.314 | – |
| LEHCQYVTQKV [ALDOB_Y204_E207Q] | -1.432 | – | -0.6551 | -0.3412 | – |
| QSSALYEDCFL [ASS1_Y83_R86C_YF] | 0.6979 | 1.263 | 1.322 | 1.929 | – |
| PHQTIYGALMI [FGF23_Y70_S71G] | -2.622 | -0.7948 | -3.192 | -2.622 | – |
| SEEVNYATLTF [CLEC12B_Y7_T6N] | -0.6417 | -1.881 | 0.955 | – | Screen [5, 11]: 1.648 |
| ADELEYSRTGL [MMUT_Y287_G284E] | – | – | – | -1.178 | – |
| ADARMYGDLPW [PLP1_Y207_V209D] | – | – | – | -2.321 | Screen [2, 10]: -1.273 |
| HHIDFYKETTN [FGFR1_Y654_K656E_YF] | – | – | – | 2.27 | – |
| LSIQTYSALNF [DES_Y423_P419S] | -2.047 | -0.607 | -1.829 | -1.403 | – |
| WSFNLYDINKD [KCNIP3_Y174_A170S] | -0.8483 | -1.011 | – | -1.005 | – |
| MKNDLYQTPLH [NFKB1_Y582_R578K] | -0.9562 | – | – | -1.089 | Screen [2, 10]: -0.3133 |
| TLSGIYQFSIA [FOXL2_Y81_I84S_YF] | -1.302 | -0.1944 | -3.13 | -3.18 | – |
| ATKNDYWAMLA [WWOX_Y287_P282A] | – | – | – | – | Screen ([5]; sheet "Abl", effect of variant peptide relative to its reference peptide in pTyr-Var library screen (enrichment)): -2.008; Screen (variant relative to reference peptide, measured in the pTyr-Var library screen) [3]: -0.006784; Screen ([4]; effect of the variant relative to its reference peptide in the pTyr-Var library screen): -0.4918 |
| FPLELYERVRI [PRKCG_Y312_M317I_YF] | 0.4614 | – | -0.1732 | – | Screen [5, 11]: 2.263 |
| KNEIFYQCPDQ [FBXO3_Y223_V221I] | -0.5331 | – | – | -0.9058 | – |
| KSNSDYVDVLP [SH2D1B_Y127_N122K] | – | – | – | -0.9717 | Screen (variant relative to reference peptide, measured in the pTyr-Var library screen) [3]: -0.2971 |
| LFEDHYLLGTS [ASS1_Y87_R86H_YF] | – | – | -1.664 | -0.9482 | – |
| QNTGVYFDLFG [PTPN11_Y62_D61V_YF] | – | – | -3.507 | -4.12 | Screen [5, 11]: 0.3099; Screen [2, 10]: 0.4058 |
| IFLGAYDRFLP [SLC22A5_Y486_V481I_YF] | – | – | – | -0.2361 | Screen [2, 10]: -0.1658 |
| RRIHNYRGHLW [VHL_Y112_S111N] | – | – | – | – | Screen [2, 10]: -2.675; Screen (variant relative to reference peptide, measured in the pTyr-Var library screen) [3]: -1.094 |
| ADARMYGVLLW [PLP1_Y207_P211L] | – | – | – | -1.961 | Screen [2, 10]: -0.7224 |
